Measurements: US20100179225A1, “POI Prevention” (CYTOKINE PHARMASCIENCES, INC., priority 2008, published 2010)

Tests used:
p38-MAPK = p38-MAPK phosphorylation in ME lysates after intestinal manipulation (immunoblot); type: in vivo, C57BL/6J mice; settings: 5 mg/kg i.v. preoperative; 30 minutes after operation; compared to placebo group
From the text: (§1) The small bowel of the animals was subjected to a standardized, surgical manipulation (IM) as described previously (Kalff J C, Schraut W H, Simmons R L et al. Surgical manipulation of the gut elicits an intestinal muscularis inflammatory response resulting in postsurgical ileus. Ann Surg 1998; 228:652-663; Wehner S, Schwarz N T, Hundsdoerfer R et al. Induction of IL-6 within the rodent intestinal muscularis after intestinal surgical stress. Surgery 2005; 137:436-446). In brief, after anesthesia a midline abdominal incision was made into the peritoneal cavity. The entire small bowel was eventuated and manipulated with standardized moderate intensity using two moist cotton applicators as described previously. After IM, the laparotomy was closed by one layer of continuous suture, except when probe sampling was conducted within 20 minutes after surgery. […]
p38-MAPK and JNK/SAPK phosphorylation were analyzed in C57BL/6J mice 15, 30 and 60 minutes after IM and in unoperated controls. […] Finally, the sonicated samples were centrifuged at 13.000×g for 10 minutes, and total protein concentration was determined with Pierce BCA protein assay (Perbio, Bonn, Germany). […]
After PAGE, proteins were blotted on Immobilon-P […] PVDF membranes. […] Chemiluminscence signals were detected with a LAS 4000 system (Fujifilm, Duesseldorf, Germany).

MCP-1 mRNA = experiment: Proinflammatory gene expression in ME, real-time RT-PCR: MCP-1; type: in vivo, mice; settings: 5 mg/kg i.v. preoperative
From the text: The small bowel of the animals was subjected to a standardized, surgical manipulation (IM) as described previously (Kalff J C, Schraut W H, Simmons R L et al. Surgical manipulation of the gut elicits an intestinal muscularis inflammatory response resulting in postsurgical ileus. Ann Surg 1998; 228:652-663; Wehner S, Schwarz N T, Hundsdoerfer R et al. Induction of IL-6 within the rodent intestinal muscularis after intestinal surgical stress. Surgery 2005; 137:436-446). In brief, after anesthesia a midline abdominal incision was made into the peritoneal cavity. The entire small bowel was eventuated and manipulated with standardized moderate intensity using two moist cotton applicators as described previously. After IM, the laparotomy was closed by one layer of continuous suture, except when probe sampling was conducted within 20 minutes after surgery. These animals were held in anesthesia and the abdomen was closed by a clamp and protected with sterile gauze. All other animals recovered rapidly from the bowel manipulation procedure. Control animals exclusively underwent laparotomy without eventration and IM (sham operation).
Animals within examples referring to FIGS. 2-9 were treated 90 minutes before operation with 0 mg/kg (placebo group), or 5 mg/kg bodyweight CNI-1493. […]
(§2) Proinflammatory gene expression was analyzed in placebo and CNI-1493 (5 mg/kg) treated animals at 1, 3, 6 and 24 hours after operation; n=5-7 each group. […] Total RNA was analyzed in ME specimen that was prepared as described before (Wehner S, Behrendt F F, Lyutenski B N et al. Inhibition of macrophage function prevents intestinal inflammation and postoperative ileus in rodents. Gut 2007; 56:176-185). […] Expression of mRNA was quantified in triplicate by a RT-PCR with gene expression assays for […] (MCP-1; #Mm00441242_m1), CCL3 (MIP-1α #Mm00441258_m1), IL-6 (Assay ID #Mm00446190_ml), TNF-α (#Mm00443258_m1) and ICAM-1 (#Mm00516023_m1). […] Data quantification was performed by the ΔΔCT method. […]

ICAM-1 mRNA = experiment: Proinflammatory gene expression in ME, real-time RT-PCR: ICAM-1; type: in vivo, mice; settings: 5 mg/kg i.v. preoperative
From the text: as §1, with “cavity.” for “cavity. The entire small bowel was eventuated and manipulated with standardized moderate intensity using two moist cotton applicators as described previously. After IM, the laparotomy was closed by one layer of continuous suture, except when probe sampling was conducted within 20 minutes after surgery.”
as §2

swine = experiment: Gastrointestinal transit in swine (radio-opaque globes, geometric center) after IM; type: in vivo; settings: 24 h after operation, mean+/−SEM
Method: Swine were fed with CPSI 2364 or placebo 14 hours and three hours before operation. In the iv group, CPSI 2364 was applied once two hours before operation. All animals were fed (non fasted). After premedication animals were intubated and a central venous catheter was applied. A laparotomy was performed under sterile conditions. The whole small bowel was eventrated and manipulated twice from duodenum to cecum between two fingers. In the sham group, a laparotomy was performed without intestinal manipulation. At the end of the operation, 15 radio-opaque globes were placed in the proximal small bowel. The abdominal wall was closed and swine were brought to an intensive care unit.
Swine underwent intestinal manipulation (IM) or laparotomy without IM (Sham). CPSI-2364 (1 mg/kg) or placebo (mannitol 2.5%) were administered orally (p.o.) twice at 14 hours and 3 hours before operation or intravenously (i.v.) once at 2 hours before operation. At the end of the operation, 15 radio-opaque globes were placed in the proximal small bowel. Twenty-four hours after operation animals were sacrificed and the radio-opaque globes were detected by x-rays radiography and the distribution along the gastrointestinal tract was calculated as the geometric center **p<0.001 vs. indicated probes by 1-way ANOVA followed by Bonferroni's post test. […]

| Compound | upregulation of p38-MAPK phosphorylation by IM (p38-MAPK) | MCP-1 mRNA expression (fold upregulation) (MCP-1 mRNA; 3 hours after IM) | MCP-1 mRNA expression (fold upregulation) (MCP-1 mRNA; 6 hours after IM) | MCP-1 mRNA expression (fold upregulation) (MCP-1 mRNA; 24 hours after IM) | ICAM-1 mRNA expression (fold upregulation) (ICAM-1 mRNA; 1 hour after IM) | ICAM-1 mRNA expression (fold upregulation) (ICAM-1 mRNA; 3 hours after IM) | gastrointestinal transit, geometric center (GC) (swine; 1 mg/kg i.v. once at 2 hours before operation) | gastrointestinal transit, geometric center (GC) (swine; 1 mg/kg p.o. twice at 14 hours and 3 hours before operation) |
| --- | --- | --- | --- | --- | --- | --- | --- | --- |
| C/C(=N\N=C(N)N)c1cc(NC(=O)CCCCCCCCC(=O)Nc2cc(/C(C)=N/N=C(N)N)cc(/C(C)=N/N=C(N)N)c2)cc(/C(C)=N/N=C(N)N)c1.Cl.Cl.Cl.Cl [CNI-1493] | reduced near to control levels | 142±45 fold | 317±143 fold | 92±44 fold | 3.3±0.70 fold | 7.2±2.8 fold | – | – |
| C/C(=N\N=C(N)N)c1cc(NC(=O)CCCCCCCCC(=O)Nc2cc(/C(C)=N/N=C(N)N)cc(/C(C)=N/N=C(N)N)c2)cc(/C(C)=N/N=C(N)N)c1.CS(=O)(=O)O.CS(=O)(=O)O.CS(=O)(=O)O.CS(=O)(=O)O [CPSI-2364] | – | – | – | – | – | – | 14.01+/−0.44 | 13.00+/−0.27 |
